How the values were obtained:
[1] = tested on: CSM14.1 neuronal cells; assay: Rescue of CSM14.1 neurons from thapsigargin-induced cell death (ATPlite); format: cell-based; settings: Rattus norvegicus, Neuron; 15 μM thapsigargin, 20 h; 10 μM compound, 2 h preincubation; cellular ATP content; read-out: % CSM14.1 Cell Viability after treatment with 15 μM TG in Presence of 10 μM compound
Text: Ability of Compounds to Rescue CSM14.1 Neurons from Thapsigargin-Induced Cell Death.
To assess the ability of the compounds to rescue neurons from ER stress-induced cell death, the rat striatal neuroprogenitor cell line CSM14.1 was used. Endoplasmic reticulum (ER) stress has been established as the major cause of neuronal loss in stroke, ischemia, and neurodegeneration (Tajiri, S.; Oyadomari, S.; Yano, S.; Morioka, M.; Gotoh, T.; Hamada, J. I.; Ushio, Y.; Mori, M. Cell Death Differ. 2004, 11, 403-415; Kohno, K.; Higuchi, T.; Ohta, S.; Kumon, Y.; Sakaki, S. Neurosci. Lett. 1997, 224, 17-20; ladecola, C.; Zhang, F.; Casey, R.; Nagayama, M.; Ross, M. E. J. Neurosci. 1997, 17, 9157-9164). Thus, we used the known ER stress-causing agent thapsigargin (TG) to model the compromised state in vitro. TG causes 100% cell death in most cases, and compounds were assessed for neuroprotection by measuring cell viability when dosed at 10 μM. CSM14.1 cells were recovered from cultures by trypsinization and plated in 96-well plates and incubated overnight at 32° C. 5 μl of test compound was added to achieve a final concentration of […]. Salubrinal and DMSO without compound were used as positive and negative controls, respectively. After 2 h of preincubation, TG-containing DMEM was added to give a final concentration of 15 μM and incubated for an additional 20 h. Cell viability was assessed by a cellular ATP content assay (ATPlite, PerkinElmer Life Sciences).

[2] = tested on: SUMOylation of His-RanGap (SUMO-E1 (SAE), SUMO-E2 (UBC9), GST-SUMO); assay: HTRF assay measuring increase in SUMOylation of His-RanGap; format: biochemical; settings: His-RanGap substrate; HTRF 665/620 ratio; 30 min at room temperature; triplicate
Experimental: Assay Measuring Increase in SUMOylation of his-RanGap.
We utilized an HTRF assay containing SUMO-E1 (SAE), SUMO-E2 (UBC9), GST-SUMO and His-RanGap, a known SUMO substrate, as well as the respective fluorescent antibodies. The assay was run in 1536-well plate format and the selected activators were chosen based on their ability to increase the FRET signal over a baseline level. In 1536-well white plates, 2 μl of phosphate buffered saline (assay buffer) was dispensed into columns 1 and 2, and 2 μl of Mixture 1 (37.5 nM E1 and 100 nM His-RanGap-1) in assay buffer (50 mM Tris-HCl pH 7.4, 0.3 mM DTT, 10 mM MgCl2, 0.005% Tween-20), was dispensed into columns 3-48. Using a pintool, 70 nl of 2 mM compounds in DMSO was dispensed to columns 5-48 and 70 nl of DMSO was dispensed to columns 1-4. Using the Thermo Scientific MultiDrop Combi, 2 μL of Mixture 2 (20 mM ATP, 12.5 nM E2 and 30 nM GST-SUMO in buffer) was dispensed to all wells and incubated for 30 min. at room temperature followed by 1 μl of 500 mM KF. Plates were read on a PheraStar in a HTRF mode (Ex: 337 nm; Em: 620/665 nm). The ratio of fluorescence 665 over 620 was utilized as a readout of the assay. Increase in SUMOylation was calculated by comparison to baseline level. Measurements were done in triplicate.

## Cc1ccc2sc(NNC(=O)c3cc(=O)c4ccccc4o3)nc2c1C [Compound B1, N′-(4,5-dimethylbenzo[d]thiazol-2-yl)-4-oxo-4H-chromene-2-carbohydrazide]
[1]
  viability at 10 µM: 40 to 50%
[2]
  % INCREASE IN SUMOylation over endogenous baseline level: C (C = 31%-40% increase)

## Cc1cc(C)c2nc(NNC(=O)c3cc(=O)c4ccccc4o3)sc2c1 [Compound B2, N′-(4,6-Dimethylbenzo[d]thiazol-2-yl)-4-oxo-4H-chromene-2-carbohydrazide]
[1]
  viability at 10 µM: 51 to 60%
[2]
  % INCREASE IN SUMOylation over endogenous baseline level: C (C = 31%-40% increase)

## COc1cccc2sc(NNC(=O)C3COc4ccccc4O3)nc12 (stereo not drawn) [Compound B3, N′-(4-methoxybenzo[d]thiazol-2-yl)-2,3-dihydrobenzo[b][1,4]dioxine-2-carbohydrazide]
[1]
  viability at 10 µM: 51 to 60%
[2]
  % INCREASE IN SUMOylation over endogenous baseline level: A (A = 10%-20% increase)
